Measured values: patent US11957671B2, “Benzodioxane modulators of leukotriene A4 hydrolase (LTA4H) for prevention and treatment of aging-associated diseases” (Alkahest, Inc., priority 2021, dated 2024)

Assays:
[1] = test system: aged wild type (WT; C57BL/6) mice; assay: Y-Maze; format: in vivo, mouse; conditions: 10 mg/kg PO daily
Experimental: A large Y-maze test assessed short-term memory of the familiarity of a specific context. Mice were brought to the experimental room for at least 30 min of acclimation to the experimental room conditions (dim lighting) prior to testing. For the initial training trial, the mouse was placed at the end of one arm of a large Y-maze designated “start arm” (arm length: 15 inches). The third arm of the maze was blocked off, allowing the mouse to explore two of the three arms freely (“start arm” and “familiar arm”) for 5 min. Each arm contained spatial cues. Three hours later, the mouse was placed back into the maze in the “start arm,” and allowed to explore all three arms with the third arm unblocked (“novel arm”). Movements in and out of each arm were tracked using automated tracking software (ANY-maze). Testing was performed under dim lighting, and the apparatus was cleaned with 70% ethanol between trials. The time spent and number of entireties into the “novel arm” and “familiar arm” were analyzed, as well as total distance travelled and velocity as measures of general locomotor activity.
Three independent cohorts of aged wild type (WT; C57BL/6) mice between twenty to twenty-two months of age (20-22 mo) were homogenized into two (2) groups by body weight, total distance travelled in the open field test, and average velocity in the open field test. Group 1 was administered vehicle control PO daily. Group 2 was administered 10 mg/kg of the LTA4H inhibitor Compound 1 PO daily. Both groups were dosed for either 10 days or 4 weeks daily. Behavioral assays were run during the last week of dosing and animals were sacrificed at the end of the study for histological and molecular assays.

[2] = test system: LTA4H hydrolysis activity in human whole blood; assay: Ex Vivo LTB4 Assay, human blood; format: cell-based; conditions: human whole blood incubated with compound
Experimental: Whole blood was incubated with Compound 1 or vehicle and then a calcium ionophore (Calcimycin, A23187), or 10% DMSO. LTB4 levels in plasma were measured using ELISA.
FIGS. 36-37 report the results of ex vivo target engagement assays with Compound 1 in human and mouse plasma. Whole blood from human or mouse was incubated with vehicle or Compound 1, following by a calcium ionophore stimulation. Plasma was generated and LTB4 levels were measured using ELISA. LTB4 is the product of LTA4H hydrolysis so this assay reports on LTA4H enzymatic activity.

aged C57BL6 mice = assay: Rotarod; format: in vivo, mouse; conditions: 19 days of dosing
Experimental: Mice were trained by allowing to run on the rotarod at 5 RPM speed setting on the i-Therm CTR-44 Rotarod for 5 minutes, if the mouse fell off it was put back on until it was able to complete minutes without falling off. After 15 minutes, if the mouse is unable to stay on the rotarod for a continuous 5 minutes, the mouse is excluded from analysis. Mice were then given 3 trials where the speed was increased from 5 RPM to 40 RPM over 90 seconds; the time at which the mouse fell off was recorded for each trial. Inter-trial interval is at least 15 minutes to allow the mice adequate rest. The rotarod is cleaned with 70% ethanol between trials.

LTA4H = LTA4H (Mus musculus (Mouse), UniProt P24527); assay: LTB4 Target Engagement Assay (in vivo dosing, calcimycin stimulated blood); conditions: for LTB4 levels in calcimycin stimulated plasma: aged mice
Experimental: Whole blood was collected by cardiac puncture using heparin as an anti-coagulant. 160 μL of whole blood was collected in duplicate for each mouse and incubated for 15 minutes in 37° C./5% CO2. During this time a 0.1 mM calcimycin stock was made by diluting 10 mM calcimycin (Sigma C7522) formulated in DMSO into PBS. Control solution was made by diluting the same volume of DMSO in PBS. Both solutions were sonicated for 10 minutes in a 37° C. water bath. 40 μL of 0.1 mM calcimycin (stimulated) or control solution (unstimulated) was added to each well of whole blood and incubated at 37° C./5% CO2 for 30 minutes. Whole blood was spun for 10 minutes at 1000×g to separate out plasma. LTB4 levels were detected by running an ELISA on the collected stimulated and unstimulated plasma diluted 1:10 (Enzo Life Sciences, ADI-901-068). The ELISA plates were read on a BMG LABTECH CLARIOstar plate reader at 405 nm.
FIGS. 60-62 report the results of in vivo target engagement assays with Compound 1 in mouse plasma. Whole blood from mice dosed with Compound 1 for 10-day FIG. 60 or 4 weeks FIG. 61 was incubated with a calcium ionophore to stimulate LTB4 release. Plasma was generated and LTB4 levels were measured using ELISA. LTB4 is the product of LTA4H hydrolysis so this assay reports on LTA4H enzymatic activity.

[3] = test system: purified endothelial cells from the brains of aged C57BL/6 mice; assay: Microbulk qPCR of endothelial genes; format: in vivo, mouse; conditions: 1 month bid P.O., 1 mg/kg Compound 1 or 2.5 mg/kg SC57461A
Experimental: (§1) Downregulation of the detrimental genes Bsg, Gbp4, and CXCL12 in purified endothelial cells from the brains of mice treated with LTA4H inhibitors Compound 1 or SC57461A were compared to those of vehicle treated mice. Gene expression was measured by qPCR from 500 sorted endothelial cells and was normalized to GAPDH control.
Aged C57BL/6 mice (21 months of age) were treated for 1 month bid P.O. with vehicle, 1 mg/kg Compound 1, or 2.5 mg/kg SC57461A (n=3 mice per treatment group). One cortical cap (cortex and hippocampus) from each mouse was isolated and cells were dissociated using Miltenyi Neutral Dissociation Kit (#130-092-628). Cells were sorted using Sony Multi-Application Cell Sorter MA900 into clean, RNAase free 200 uL PCR strip tube with 5 uL RNAlater at a concentration of 500 cells per tube. RNA was isolated follow kit protocol for Qiagen RNeasy Micro Kit (#74004). cDNA was synthesized using SuperScript III Kit Protocol and qPCR assays were run using TaqMan or SYBR green primers.
as §1, with “beneficial gene, Plat,” for “detrimental genes Bsg, Gbp4, and CXCL12”

LTA4H, sequence (P24527 whole entry): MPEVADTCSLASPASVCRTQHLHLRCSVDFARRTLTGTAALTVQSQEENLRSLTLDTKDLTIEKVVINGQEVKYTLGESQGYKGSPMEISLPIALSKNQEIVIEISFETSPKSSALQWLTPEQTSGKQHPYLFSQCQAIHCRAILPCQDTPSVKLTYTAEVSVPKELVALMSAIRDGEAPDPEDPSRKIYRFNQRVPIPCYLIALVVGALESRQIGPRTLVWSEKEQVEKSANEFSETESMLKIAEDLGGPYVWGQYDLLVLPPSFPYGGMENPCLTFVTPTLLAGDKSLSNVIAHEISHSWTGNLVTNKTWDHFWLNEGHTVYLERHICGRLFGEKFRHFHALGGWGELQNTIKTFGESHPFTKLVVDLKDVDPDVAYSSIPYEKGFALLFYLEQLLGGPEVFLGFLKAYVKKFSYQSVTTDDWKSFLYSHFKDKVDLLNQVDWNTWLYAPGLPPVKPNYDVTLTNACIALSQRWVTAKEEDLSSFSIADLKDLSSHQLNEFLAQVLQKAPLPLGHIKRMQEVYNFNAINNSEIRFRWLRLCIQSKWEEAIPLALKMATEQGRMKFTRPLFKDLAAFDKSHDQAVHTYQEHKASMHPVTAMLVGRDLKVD

- LTB4 levels in calcimycin stimulated plasma (LTA4H; 4 weeks of dosing): inhibition of LTA4H
- LTB4 levels in calcimycin stimulated plasma (LTA4H; 10 days of dosing): inhibition of LTA4H
SMILES: O=C(O)C1CCN(Cc2ccc([C@H]3COc4ccccc4O3)cc2)CC1 [Example 1, 1-{4-[(2S)-2,3-dihydro-1,4-benzodioxin-2-yl]benzyl}piperidine-4-carboxylic acid]
- entries into the N and F arms during testing ([1]; after 12 days of treatment): enter the N and F arms equally
- percent time spent in the novel (N) or familiar (F) arms during testing ([1]; after 12 days of treatment): significantly more time in the novel arm
- percent time spent in the novel (N) or familiar (F) arms during testing ([1]; after 18 days of treatment): significantly improved
- percentage of entries into the N and F arms ([1]; after 18 days of treatment): enter the novel arm significantly more than the familiar arm
- percentage of entries into the N and F arms ([1]; after 26 days of treatment): enter the novel arm significantly more than the familiar arm
- LTB4 plasma levels after calcium ionophore stimulation [2]: reduces LTB4 plasma levels to unstimulated levels
- average time before falling on the rotarod (aged C57BL6 mice): no change in average time before falling
- LTB4 inhibition, compound made for 3 independent studies (LTA4H; young mice, 2 hours after a single dose): no difference in the amount of inhibition across the 3 independent studies
- Bsg gene expression [3]: down regulation of Bsg gene expression
- CXCL12 gene expression [3]: down regulation of CXCL12 gene expression
- Gpb4 gene expression [3]: down regulation of Gpb4 gene expression
- Plat gene expression [3]: up regulation of Plat gene expression
